Target: endogenous glucocorticoid receptor (Homo sapiens, UniProt P04150)
Sequence (P04150 whole entry): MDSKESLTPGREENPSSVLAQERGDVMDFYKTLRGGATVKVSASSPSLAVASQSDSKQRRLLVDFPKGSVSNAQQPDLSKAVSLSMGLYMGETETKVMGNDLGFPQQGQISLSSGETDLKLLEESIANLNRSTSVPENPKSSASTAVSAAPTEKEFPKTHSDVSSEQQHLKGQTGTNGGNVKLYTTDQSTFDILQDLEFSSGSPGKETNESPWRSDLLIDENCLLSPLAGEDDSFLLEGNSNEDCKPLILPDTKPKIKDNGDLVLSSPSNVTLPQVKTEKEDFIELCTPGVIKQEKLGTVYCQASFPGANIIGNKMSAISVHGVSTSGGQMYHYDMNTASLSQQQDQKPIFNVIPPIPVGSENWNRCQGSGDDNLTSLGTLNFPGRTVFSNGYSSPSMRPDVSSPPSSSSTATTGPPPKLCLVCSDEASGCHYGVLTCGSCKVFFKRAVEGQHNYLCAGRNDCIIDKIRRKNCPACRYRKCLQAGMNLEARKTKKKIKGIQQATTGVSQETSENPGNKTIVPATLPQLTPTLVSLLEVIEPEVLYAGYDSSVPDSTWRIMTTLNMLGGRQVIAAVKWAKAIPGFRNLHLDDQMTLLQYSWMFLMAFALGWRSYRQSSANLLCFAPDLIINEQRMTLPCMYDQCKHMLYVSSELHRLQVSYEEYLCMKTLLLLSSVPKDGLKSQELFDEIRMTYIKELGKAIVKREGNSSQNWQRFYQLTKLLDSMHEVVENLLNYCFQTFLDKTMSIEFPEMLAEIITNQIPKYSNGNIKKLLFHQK
Conditions: concentration ≦10 µM; A549 cells stimulated with 10 ng/ml PMA; versus buffer control
Description: A549 cells, which contain endogenous glucocorticoid receptor, were stably transfected with an AP-1 DNA binding site attached to the luciferase gene. […] Cells are plated the day before the assay at approximately 40000 cells/well. […] Activity is measured by analysis in a luminometer as compared to control experiments treated with buffer or dexamethasome.
With `C[C@@H]1C[C@H]2[C@@H]3CCC4=CC(=O)C=C[C@]4(C)[C@@]3(F)[C@@H](O)C[C@]2(C)[C@@]1(O)C(=O)CO` [dexamethasone] the “% inhibition of the reporter system (suppresses activity)” value was 65%.

Target: T1, AR (Rattus norvegicus, UniProt P15207)
T1 sequence (P15207 1-902): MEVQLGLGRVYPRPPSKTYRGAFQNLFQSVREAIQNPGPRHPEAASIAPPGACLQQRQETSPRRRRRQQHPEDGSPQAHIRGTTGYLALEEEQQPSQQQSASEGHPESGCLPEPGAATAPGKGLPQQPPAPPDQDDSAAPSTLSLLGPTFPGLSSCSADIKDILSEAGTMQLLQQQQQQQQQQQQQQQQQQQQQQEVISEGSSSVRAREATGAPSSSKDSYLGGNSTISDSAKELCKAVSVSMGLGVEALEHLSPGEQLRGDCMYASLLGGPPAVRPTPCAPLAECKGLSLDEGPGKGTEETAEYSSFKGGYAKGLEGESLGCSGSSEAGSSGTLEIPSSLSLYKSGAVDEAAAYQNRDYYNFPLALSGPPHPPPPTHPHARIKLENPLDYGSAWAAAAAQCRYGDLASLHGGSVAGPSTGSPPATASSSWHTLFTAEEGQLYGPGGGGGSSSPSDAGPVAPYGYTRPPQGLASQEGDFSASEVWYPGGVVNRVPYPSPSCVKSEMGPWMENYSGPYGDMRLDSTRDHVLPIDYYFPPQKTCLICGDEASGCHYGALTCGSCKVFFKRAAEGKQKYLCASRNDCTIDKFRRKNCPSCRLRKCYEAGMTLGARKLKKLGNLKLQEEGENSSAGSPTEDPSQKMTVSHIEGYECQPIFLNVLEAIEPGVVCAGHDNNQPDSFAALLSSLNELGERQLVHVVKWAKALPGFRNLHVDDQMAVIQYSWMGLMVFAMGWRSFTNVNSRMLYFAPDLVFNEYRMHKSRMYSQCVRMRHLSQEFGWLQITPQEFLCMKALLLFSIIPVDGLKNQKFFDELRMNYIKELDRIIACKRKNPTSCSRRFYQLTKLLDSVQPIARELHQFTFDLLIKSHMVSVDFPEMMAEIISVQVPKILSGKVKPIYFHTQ
Conditions: immature castrated rats
Source text: The activity of compounds of the present invention as AR agonists was investigated in an immature male rat model, a recognized test of anabolic effects in muscle and sustaining effects in sex organs for a given compound, as described in L. G. Hershberger et al., Proc. Soc. […] Biol. Med., 83, 175 (1953); B. L. Beyler et al, “Methods for evaluating anabolic and catabolic agents in laboratory animals”, J. Amer. Med. Women's Ass., 23, 708 (1968); H. Fukuda et al., “Investigations of the levator ani muscle as an anabolic steroid assay”, Nago Dai. Yak. Ken. Nem. 14, 84 (1966) the disclosures of which are herein incorporated by reference.
The basis of this assay lies in the well-defined action of androgenic agents on the maintenance and growth of muscle tissues and sexual accessory organs in animals and man. […] J. Anat. […] Ital. Biol. Sper. […] II. […] Ital. Biol. Sper. 42, 1600 (1966); A. Boris et al., Steroids 15, 61 (1970). As described above, the effects of androgens on maintenance of male sexual accessory organs, such as the prostate and seminal vesicles, is well described. Castration results in rapid involution and atrophy of the prostate and seminal vesicles. This effect can be reversed by exogenous addition of androgens. […]
For `CCC(=O)O[C@H]1CC[C@H]2[C@@H]3CCC4=CC(=O)CC[C@]4(C)[C@H]3CC[C@]12C` [TP, testosterone propionate], the “EC50 (organ weight increase)” value was about 0.03 mg.

Same assay, conditions: organ weight increase, castrated rats
With `CCC(=O)O[C@H]1CC[C@H]2[C@@H]3CCC4=CC(=O)CC[C@]4(C)[C@H]3CC[C@]12C` [TP, testosterone propionate] the “potency relative to free T” value was 10–30 fold.

System: not given
Conditions: not given
Work on `N#Cc1ccc(N2C(=O)[C@@H]3[C@H](O)CCCN3C2=O)c2ccccc12` (racemic) yielded a melting point of 243 °C. Compound `N#Cc1ccc(N2C(=O)[C@@H]3[C@H](O)[C@H](O)CN3C2=O)c2ccccc12` (stereo in doubt) has a melting point of 225 °C. For `Cl.N#Cc1ccc(N2C(=O)C3CNCCN3C2=O)c2ccccc12` (racemic), the melting point was 200 °C. Work on `N#Cc1ccc(N2CC3[C@@H](O)CCN3C2=O)c2ccccc12` (stereo partly shown) yielded a melting point of 226 to 228 °C. With `N#Cc1ccc(N2C(=O)C3=CCCN3C2=O)c2ccccc12` the melting point was 230 to 232 °C. Work on `O=C1C2C[C@@H](OCc3ccccc3)CN2C(=O)N1c1ccc([N+](=O)[O-])c2ccccc12` (stereo partly shown) yielded a melting point of 120 to 122 °C. Compound `N#Cc1ccc(N2C(=O)[C@@H]3[C@H](O)CCN3C2=S)c2ccccc12` has a melting point of 215 to 216 °C. In the case of `CO[C@H]1CCN2C(=O)N(c3ccc(C#N)c4ccccc34)C(=O)[C@@H]12` (racemic), the melting point is reported as 185 to 186 °C. `O=C1[C@H]2[C@@H](O)CCN2C(=O)N1c1ccc(Br)c2ccccc12` (racemic) showed a melting point of 204 to 206 °C. `N#Cc1ccc(N2C(=O)[C@H]3[C@@H](O)[C@@H](O)CN3C2=O)c2ccccc12` (stereo in doubt) gave a melting point of 246 °C. With `O=C1C2CCCCN2C(=O)N1c1ccc([N+](=O)[O-])c2ccccc12` (racemic) the melting point was 190 to 192 °C. `N#Cc1ccc(N2C[C@@H]3[C@H](O)CCN3C2=O)c2ccccc12` showed a melting point of 226 to 228 °C. Compound `N#Cc1ccc(N2C(=O)[C@H]3[C@@H](O)CCCN3C2=O)c2ccccc12` has a melting point of 244 °C. In the case of `CS(=O)(=O)N1CCN2C(=O)N(c3ccc(C#N)c4ccccc34)C(=O)C2C1` (racemic), the melting point is reported as 207 to 216 °C. `C[C@@]12C(=O)N(c3ccc(C#N)c4ccccc34)C(=O)N1CC[C@@H]2O` gave a melting point of 234 to 235 °C. In the case of `CC(C)(C)OC(=O)N1CCN2C(=O)N(c3ccc(C#N)c4ccccc34)C(=O)C2C1` (stereo not shown), the melting point is reported as 222 to 224 °C. Compound `CC(C)(C)[C@H]1N(c2ccc(C#N)c3ccccc23)C(=O)[C@@H]2C[C@@H](O)CN21` has a melting point of 155 to 157 °C. `C[C@]12C(=O)N(c3ccc(C#N)c4ccccc34)C(=O)N1CC[C@H]2O` showed a melting point of 232 to 234 °C. `CC(=O)O[C@@H]1CCN2C(=O)N(c3ccc(C#N)c4ccccc34)C(=O)[C@H]12` (racemic) showed a melting point of 105 °C.

Source: patent US6992102B2, “Bicyclic modulators of androgen receptor function” (Bristol-Myers Squibb Company, priority 2001, dated 2006)
